10 compounds from patent US8399425B2, “Alleviating neuropathic pain with EETs and sEH inhibitors” (The Regents of the University of California, priority 2007, dated 2013) can be followed below.

Entries after “also recorded” stand apart in the source; their conditions may differ.

The target of one series is T1, TSPO (Rattus norvegicus, UniProt P16257).
T1 construct: rat heart mitochondria was isolated and incubated with; tissue CEREP (France); host or cells: rat heart mitochondria
Nature of the series: [3H] PK 11195 radioligand displacement from TSPO, rat heart mitochondria. In kind it is binding. The conditions noted are these: individual regioisomers compared with the mixture. The protocol:
Binding studies. Radioligand binding studies were conducted by CEREP (France) according to standard procedures as described by LeFur. Briefly, rat heart mitochondria was isolated and incubated with [^3H] PK11195 at 30° C. in the presence of increasing concentrations of EET-me analogues or EET free acids. Reaction mixture was passed through glass wool filters washed 3 times using cold binding buffer and dried by air. Filter were than counted and IC50 values were calculated.
For orientation: Displacement assays read how much labelled ligand stays bound in the presence of the test substance.

Another series has as its system LPS induced hyperalgesia. Briefly: intraplantar LPS inflammatory pain, thermal hindpaw withdrawal latency. In kind it is in vivo, rat. The following applies: for analgesic activity of AEPU on co-administration: 10 mg/kg dermal, co-administered with AEPU; for inflammatory pain related behavior: LPS inflammation. The protocol: (§1) Treatments and behavioral nociceptive tests. Behavioral nociceptive testing was conducted by assessing thermal hindpaw withdrawal latencies (TWL) using a commercial Hargreaves (Hargreaves et. al 1998) apparatus (IITC, Woodland Hills, Calif.), or by determining mechanical hindpaw withdrawal thresholds (MWT) using an electronic von Frey anesthesiometer (IITC, Woodland. Hills, Calif.). For DAT determination, a maximum stimulus duration of 22 s was imposed to prevent tissue damage. Following baseline measurements, rats were first treated with 200 μl of vehicle or compound-formulated cream by topical application to one hindpaw, LPS ([…] in 50 μl 0.9% NaCl) was injected into the plantar surface of the treated paw. For subcutaneous administration, compounds were injected immediately after intraplantar LPS. Animals were then placed in acrylic chambers on a glass platform maintained at a temperature of 30±1° C. for measurement or on a wire-mesh platform for MWT measurements. A probe fitted with a filament that is connected to a force transducer was applied to the plantar hind paw surface through a wire-mesh platform until eliciting a withdrawal reflex. The duration of heat application or the force (gr) necessary to elicit a withdrawal was designated as TWL and MWT. The steroidogenesis inhibitors were applied 2 hours before sEHI and LPS administration. Diabetes was induced by intravenous injection of 50 mg/kg streptozocin (STZ) in saline following baseline measurements. Diabetic animals were tested at least one week after STZ administration. Three measurements were taken from each animal at each time point and average responses were converted to percent analgesia index based on each animals' baseline response.

The test system of series [1] is streptozocin induced neuropathic pain. Briefly: von Frey test (mechanical allodynia) in streptozocin neuropathic rats. Format: in vivo, rat. The following applies: for neuropathic pain, von Frey test: streptozocin (50 mg/kg iv) rats, subcutaneous, dose and time response. How it is done:
Male Sprague-Dawley rats weighing 250-300 grains were used. Animals were individually housed at UC Davis Animal Resource Facility under standard conditions with free access to food and water, and maintained for at least 1 week before the experiments. Pain was quantified using three tests, the hind paw withdrawal latency test, the mechanical hyperalgesia test and the mechanical allodynia test. All the experiments were performed during the daytime.
Rats were first trained to the experimental chamber in two separate sessions. On the day of the induction of neuropathy, the animals' basal response to all three tests were measured and then streptozocin (50 mg/kg) was administered intravenously. Animals were then followed over time for the development of neuropathic pain. An inhibitor of sEH was administered subcutaneously one week after the onset of pain symptoms. […] Compounds were formulated by dissolving them in ethanol and mixing with trans free oleic oil. At least six animals per group were used. The Von Frey test was conducted by stimulating the plantar surface of the rats' hind paw with a calibrated filament connected to a force transducer. As this filament is applied the amount of force exerted on the paw increases and the animal withdraws its paw when the force reaches its threshold. […] In the Randal-Selitto test a similar principle is used. The animals' hind paw is placed between a flat surface and a pointed tip of a force transducer. The pointed tip exerts force on the dorsal face of the paw. […] The two tests are complementary, but depend on the activity of different groups of nociceptors.
as §1, with “Behavioral nociceptive testing was conducted by assessing thermal hindpaw withdrawal latencies (TWL) using a commercial Hargreaves (Hargreaves et. al 1998) apparatus (IITC, Woodland Hills, Calif.), or by determining mechanical hindpaw withdrawal thresholds (MWT) using an electronic von Frey anesthesiometer (IITC, Woodland. Hills, Calif.). For DAT determination, a maximum stimulus duration of 22 s was imposed to prevent tissue damage.” left out, “Animals were then placed in acrylic chambers on a glass platform maintained at a temperature of 30±1° C. for measurement or on a wire-mesh platform for MWT measurements.” left out

In a further series the test system is COX-2 mRNA. Briefly: spinal COX-2 mRNA after intraplantar LPS. In kind it is in vivo, rat. The following applies: spinal cord.
The test system of a further series is ICER. Nature of the series: ICER expression in spinal cord. In kind it is in vivo, rat. The conditions noted are these: LPS. The protocol: (§2) Blood samples for chemical analysis were collected by cardiac puncture under deep isoflurane anesthesia. Plasma was immediately separated by centrifuging at 4000 rpm for 10 minutes in a cold centrifuge. Rats were then decapitated under anesthesia and tissues were removed and flash frozen in liquid nitrogen. For sampling the brain after decapitation, the scalp was first removed providing accessibility to the cranial plates. A midline incision was introduced to detach the cranial plates and brain was carefully exposed by peeling the plates. The brain was removed from the skull using a spatula, immediately placed in liquid nitrogen, and stored at −80° C. The prefrontal area was removed by a coronal cut to the distal one third of the brain from the frozen tissue. The cerebellum was also removed and the brain was hemisected. Saggital slices with a thickness of 2 mm and weighing 100-200 mg were cut from both hemispheres lateral to the thalamus and stored to be used for qRT-PCR or chemical analysis. Plasma hormone levels were quantified using RIA. For quantitative RT-PCR, standard procedures were followed.

The next series relates to StAR mRNA. Briefly: StAR mRNA expression in spinal cord and brain (qRT-PCR). In kind it is in vivo, rat. The following applies: for StAR expression in spinal cord and brain: intrathecal, alone, within 30 minutes. How it is done:
as §2, with “Saggital slices with a thickness of 2 mm and weighing 100-200 mg were cut from both hemispheres lateral to the thalamus and stored to be used for qRT-PCR or chemical analysis.” left out
For orientation: Real-time PCR tracks product formation cycle by cycle.

The test system of series [2] is streptozocin induced neuropathic pain. Nature of the series: mechanical hyperalgesia test (Randal-Selitto) in streptozocin neuropathic rats. Format: in vivo, rat. How it is done:
Male Sprague-Dawley rats weighing 250-300 grains were used. Animals were individually housed at UC Davis Animal Resource Facility under standard conditions with free access to food and water, and maintained for at least 1 week before the experiments. Pain was quantified using three tests, the hind paw withdrawal latency test, the mechanical hyperalgesia test and the mechanical allodynia test. All the experiments were performed during the daytime. Rats were first trained to the experimental chamber in two separate sessions. On the day of the induction of neuropathy, the animals' basal response to all three tests were measured and then streptozocin (50 mg/kg) was administered intravenously. Animals were then followed over time for the development of neuropathic pain. An inhibitor of sEH was administered subcutaneously one week after the onset of pain symptoms. […] Pain response was measured at 60, 120, 240 and 480 minutes after the administration of the sEHI. Compounds were formulated by dissolving them in ethanol and mixing with trans free oleic oil. At least six animals per group were used. The Von Frey test was conducted by stimulating the plantar surface of the rats' hind paw with a calibrated filament connected to a force transducer. As this filament is applied the amount of force exerted on the paw increases and the animal withdraws its paw when the force reaches its threshold. […] In the Randal-Selitto test a similar principle is used. The animals' hind paw is placed between a flat surface and a pointed tip of a force transducer. The pointed tip exerts force on the dorsal face of the paw. […] The two tests are complementary, but depend on the activity of different groups of nociceptors.

Regarding `CCCCC/C=C\C/C=C\CC1OC1C/C=C\CCCC(=O)OC` (centres unmarked) [8,9-EET-me], the “activity on TSPO” value at TSPO was “completely lacked activity”.

As to `CCC1(c2ccc(N)cc2)CCC(=O)NC1=O` (centres unmarked) [aminoglutethimide, reference compound], in the series with LPS induced hyperalgesia, the “analgesic activity of AEPU on co-administration” value is on record as “completely abolished”.

Take `CC(=O)N1CCC(NC(=O)Nc2ccc(OC(F)(F)F)cc2)CC1` [TPAU]: the “analgesic potency compared with morphine” value in the series on LPS induced hyperalgesia (10 mg/kg vs morphine 1 mg/kg) is listed as “potency strikingly comparable to that of a moderate dose of morphine”. Further, the “inflammatory pain related behavior” value in the series with LPS induced hyperalgesia is “particularly more effective; also recorded: substantially reduced hyperalgesia”. Further, the “response to stimuli, motor activity” value in the series on LPS induced hyperalgesia (treated animals) is listed as “no reduction in response to stimuli or gross signs of loss of motor activity”. Also, in series [1], the “neuropathic pain, von Frey test” value was “reduced and at higher doses eliminated”. Also, the “spinal COX-2 mRNA increase” value in the series on COX-2 mRNA is reported as “particularly more effective”.

As for `CC(C)(C)NC(=O)[C@H]1CC[C@H]2[C@@H]3CC[C@H]4NC(=O)C=C[C@]4(C)[C@H]3CC[C@]12C` [finasteride, reference compound], in the series with LPS induced hyperalgesia, the “analgesic activity of AEPU on co-administration” value was “completely abolished”.

With `CCCCC/C=C\C/C=C\C/C=C\CC1OC1CCCC(=O)OC` (centres unmarked) [5,6-EET-me], the “activity on TSPO” value at TSPO was “less potent than the mixture were active and more efficacious”.

Consider `CCOCCOCCOCCCCCNC(=O)NC12CC3CC(CC(C3)C1)C2` [AEPU, Adamantan-1-yl-3-{5-[2-(2-ethoxyethoxy)ethoxy]pentyl}urea], for which the “paw withdrawal latency in response to a mild heat stimulus” value in the series on LPS induced hyperalgesia (50 mg/kg dermally, intraplantar LPS) is given as “transiently increased the paw withdrawal latency”. Further, the “inflammatory pain related behavior” value with LPS induced hyperalgesia is on record as “had a transient effect on pain however remained analgesic”. For the same compound, the “increase in ICER message” value in the series with ICER is “up to 3 fold”. Moreover, the “StAR message in the brain” value is reported as “neither local inflammation nor AEPU alone elicited an increase” in the series with StAR mRNA (compound alone) and “two fold increase” with StAR mRNA (inflamed animals treated with compound). The “StAR mRNA in the brain” value in the series with StAR mRNA (intrathecal with 8-Br cAMP (100 μg), 30 min) is given as “elicited a parallel increase in the brain”. For the same compound, the “StAR expression in the spinal cord” value in the series with StAR mRNA (intrathecal with 8-Br cAMP (100 μg), 30 min, EETs 5 μg, AEPU 1 μg) is reported as “increased the expression level of StAR in the spinal cord”. The “StAR expression in spinal cord and brain” value in the series with StAR mRNA was “did not change”.

Consider `CCCCCC1OC1C/C=C\C/C=C\C/C=C\CCCC(=O)OC` (centres unmarked) [14,15-EET-me], for which the “activity on TSPO” value at TSPO is “less potent than the mixture were active and more efficacious”.

Turning to `O=C(O)CCCCCCCCCCCNC(=O)NC12CC3CC(CC(C3)C1)C2` [AUDA, 12-(3-Adamantan-1-yl-ureido)dodecanoic acid], the “pain, mechanical hyperalgesia test (FIG. 3)” value in series [2] (10, 20 and 50 mg/kg) was “reduced pain in a time and dose dependant”. The “mechanical allodynia induced by diabetic neuropathy (FIG. 3 legend)” value in series [2] (compound 1010 at equivalent dose) is recorded as “reversed”. In addition, in series [1] (moderate dose), the “decrease in withdrawal threshold” value is “completely reversed the decrease in withdrawal threshold”. In addition, the “pain scores of diabetic rats” value in series [1] (neuropathic pain model) was “dose and time dependent improvement in pain scores”. Besides, in series [1] (rat, in vivo), the duration of effect result is on record as “lost its effect after four hours”. The “neuropathic pain, von Frey test” value in series [1] is “reduced neuropathic pain in a dose and time dependant manner”.

In the case of `Nc1ncnc2c1nc(Br)n2[C@@H]1O[C@@H]2COP(=O)(O)O[C@H]2[C@H]1O` [8-Br cAMP, reference compound], the “StAR expression in spinal cord and brain” value in the series with StAR mRNA was “did not change”.

Turning to `O=C(NC12CC3CC(CC(C3)C1)C2)N[C@H]1CC[C@H](Oc2ccc(C(=O)O)cc2)CC1` (relative stereo) [t-AUCB, trans-4-[4-(3-adamantan-1-yl-ureido)-cyclohexyloxy]-benzoic acid], in series [1], the “neuropathic pain, von Frey test” value was “reduced and at higher doses eliminated”.
